Measured values taken from patent US7919260B2, “Screening methods using GPR52” (Takeda Pharmaceutical Company Limited, priority 2005, dated 2011).

Assays:
Assay type in all cases: cell-based
GPR52 [1] = molecular target: T1, GPR52 (Homo sapiens, UniProt Q9Y2T5); experiment: Increase of intracellular cAMP levels in human GPR52 expression CHO cell line (cAMP Screen Kit); set-up: expressed in transfected cells; conditions: reserpine in various concentrations, 30 minutes; negative controls Mock CHO and TGR5 CHO cell lines (FIG. 3)
Protocol: The human GPR52 expression CHO cells obtained in REFERENCE EXAMPLE 1 was washed in the assay medium (HBSS (Gibco BRL) supplemented with 0.2 mM isobutylmethylxanthine), followed by incubation for 30 minutes under conditions at 37° C. in 5% CO2. Then, reserpine diluted in the assay medium was added in various concentrations. The assay buffer alone was used as a Base. After the addition, incubation was conducted for 30 minutes under conditions at 37° C. in 5% CO2. The culture supernatant was discarded and the intracellular cAMP level was assayed on the plate reader (EnVision, Perkin-Elmer) in accordance with the protocol of cAMP Screen Kit (Applied Biosystems). As negative controls, the CHO cell line (Mock) wherein no exogenous receptor was expressed and the CHO cell line (TGR5) wherein Gs-conjugated receptor TGR5 was stably expressed were co-assayed.

human GPR52-GFP = molecular target: T2, human GPR52-GFP (Homo sapiens, UniProt Q9Y2T5, I167T); experiment: Internalization of GPR52-GFP fusion protein expressed in CHO cells (confocal microscopy); conditions: reserpine 10^-4 M, 30 minutes after addition
T2 construct: expressed in transfected cells; host or cells: CHO cells, vector pAKKO-111H
Text: An expression plasmid was constructed to express a fused protein of Green Fluorescent Protein (GFP) cDNA isolated from jellyfish or Auquorea victoria, fused to GPR52 at the C-terminus to fit the translation frame. In this case, a fragment excised from GFP expression vector pQBI25 (Takara Shuzo) was used as GFP cDNA. In GPR52, its termination codon was modified by PCR to recognition sequence with restriction enzyme NheI, and the GFP fragment was ligated thereto, which was inserted into the expression vector pAKKO-111H [Biochem. Biophys. Acta, 1219, 251 (1994)] and transfected to CHO cells in a conventional manner to obtain the human GPR52-GFP expression CHO cell line. The human GPR52-GFP expression CHO cells were suspended in a growth medium [αMEM (containing nucleic acids: Invitrogen) supplemented with 10% fetal calf serum (GIBCO BRL)] and plated on a Lab-TekII cover glass chamber with 4 chambers (Nalgen Nunc) in a concentration of 0.6×10^5 cells/chamber. […] In this case, GFP was excited at 488 nm.

GPR52 [2] = molecular target: T1, GPR52; experiment: Changes in intracellular calcium levels on FLIPR in CNGC-E583M/HEK293 cells transiently expressing human GPR52; set-up: expressed in transfected cells; host or cells: CNGC-E583M/HEK293 cells (HEK293 stably expressing rat olfactory cyclic nucleotide-gated channel E583M), transient transfection of pAKKO-GPR52; conditions: human GPR52 transiently expressed in CNGC-E583M/HEK293; reserpine 1.0-100 μM (FIG. 1), methoctramine 15-75 μM (FIG. 2); no such response in control cells transfected with other receptor vector
Protocol: The stable expression cell line (CNGC-E583M/HEK293 cell line) of rat olfactory cyclic nucleotide-gated channel (CNGC-E583M), which was used as a host cell, was obtained by inserting rat olfactory cyclic nucleotide-gated channel (CNGC-E583M) cDNA into expression vector pcDNA3.1(+) neo (Invitrogen) (pcDNA3.1-CNGC), transfecting pcDNA3.1-CNGC into HEK293 cells (purchased from ATCC) in a conventional manner, and incubating the cells in DMEM (Dulbecco's modified Eagle medium) supplemented with 10% fetal calf serum (Invitrogen) and 800 mg/l geneticin (Invitrogen) under 5% CO2 at 37° C. [Fagan et al., FEBS, 500, 85 (2001); Reinescheid et al., European Journal of Pharmacology, 478, 27 (2003)]. The CNGC-E583M/HEK293 cells were incubated in a collagen-coated 75 cm^2 flask. […] First, an assay buffer was prepared to add fluorescence dye Fluo-3AM (DOJIN) to the cells or to wash the cells immediately before the FLIPR assay. […] The mixture was then added to 10.6 ml of the assay buffer supplemented with 105 μl of fetal calf serum, and 20 μl of 500 mM IBMX/DMSO was further added to prepare a fluorescence dye solution. The fluorescence dye solution was dispensed onto the cell plate by 100 μl each/well using an 8-channel pipette and the cells were incubated at 37° C. in a 5% CO2 incubator for an hour (dye loading). […]

[3] = system: NMDA-type glutamate receptor; experiment: Phosphorylation (Ser897) of NMDA-type glutamate receptor in rat primary culture neurons (western blot, Anti-phospho-NR1); conditions: 50 μM Compound A; cells recovered 1, 2, 5, 15 and 30 minutes after
Protocol: Using primary culture neurons from the rat […], phosphorylation of the NMDA-type glutamate receptor by GPR52 agonists was studied. Rat (Wistar, Charles River Japan) embryonic brain (E19) was dissected to isolate the cerebral cortex, and the cells were prepared using Neuron Dispersion Set (Dainippon Pharmaceutical). The cells were plated on a 24-well poly-L-lysine plate (3×10^5 cells/well) and incubated for 2 weeks in Neuro Basal (B27, containing 0.5 mM glutamine, GIBCO) medium. Compound A was added to the above cells at a final concentration of 50 μM, and the cells were recovered 1, 2, 5, 15 and 30 minutes after. After the cells were lysed in Invitrogen's NuPAGE Sample Buffer (containing DTT), western blot analysis was performed using antibody Anti-phospho-NR1 (Ser897) (Upstate).

[4] = system: NMDA-type glutamate receptor; experiment: Activation of NMDA-type glutamate receptor in neurons from rat embryonic cerebral cortex (fura-2 intracellular calcium, AQUACOSMOS)
Protocol: Neurons from rat embryonic cerebral cortex (CAMBREX) were cultured in a 48-well poly-L-lysine (Sumitomo Bakelite) for 14-15 days by a modification of the method attached. A neuron culture medium (Dainippon Pharmaceutical) was used as a medium, unless otherwise indicated. Changes in intracellular calcium levels were assayed using AQUACOSMOS (Hamamatsu Photonics). For assaying the changes in intracellular calcium levels, the following pretreatment was made. First, in order to add fluorescence dye fura-2/AM (Molecular Probes) to cells, an assay buffer used to wash the cells immediately before the assay was prepared. To 1000 ml of HBSS (Invitrogen) supplemented with 20 ml of 1M HEPES (pH7.4) (DOJIN) (hereinafter HBSS/HEPES solution), 10 ml of a solution prepared by dissolving 710 mg of Probenecid (Sigma) in 5 ml of 1N NaOH and further adding 5 ml of the HBSS/HEPES solution thereto was added, and the resulting solution was used as the assay buffer. Next, an equal volume of 20% Pluronic acid (Molecular Device) was added to and mixed with the fura-2/AM stock solution. The mixture was dissolved in the assay buffer in a final concentration of 5 μM fura-2 to prepare the fura-2 fluorescence dye solution. The fura-2 fluorescence dye solution was loaded on neurons from the rat embryonic cerebral cortex, followed by incubation for 30-60 minutes. Thereafter, the changes in calcium levels in the individual neurons were determined using AQUACOSMOS (Hamamatsu Photonics).
Activation of the NMDA-type glutamate receptor in the cerebral cortex was analyzed by the procedures described in EXAMPLE 9.

GPR52 [5] = molecular target: T1, GPR52; experiment: Screening of GPR52 agonists: intracellular cAMP in GPR52 stable expression cells (AlphaScreen cAMP Assay Kit); set-up: expressed in transfected cells; conditions: secondary screening at 100-0.1 μM
Protocol: The GPR52 stable expression cells prepared in REFERENCE EXAMPLE 1 were incubated in a 150 cm^2 at 37° C. overnight in a CO2 incubator. After the incubation, the cells were detached with 0.5 mM EDTA/PBS, and washed in PBS. The cells were then suspended at a density of 1×10^7 cells/ml in Buffer 1 (HBSS+0.1% BSA, 25 mM HEPES, pH 7.3, 0.5 mM IBMX). This cell suspension, 440 μl, was mixed with 22 μl of Anti-cAMP Acceptor Beads of AlphaScreen cAMP Assay Kit (Perkin Elmer) and 638 μl of Buffer 1. The resulting mixture was dispensed on a white 96-well plate (Costar) by 10 μl each. Next, 10 μl each of the test compound dilutions in Buffer 1 was added to each well. After shaking at room temperature for 30 minutes, 20 μl of Biotinyl cAMP and 82 μl of Streptavidin Donor Beads of AlphaScreen cAMP Assay Kit was added to 40 ml of Buffer 2 (HBSS+0.1% BSA, 25 mM HEPES, pH 7.3, 1.5% Tween 20) and the resulting mixture was added to all wells of the plate by 30 μl each. The plate was kept shaken at room temperature for 3 hours and the fluorescence intensities were measured by Fusion α (Perkin Elmer).
Secondary screening was applied to these compounds in various concentrations (100 μM, 30 μM, 10 μM, 3 μM, 1 μM and 0.1 μM) using the procedures described in EXAMPLE 11 (detailed analysis).

| internalization of GPR52-GFP fused protein (GFP fluorescence moved from cell membrane to cytoplasm) (human GPR52-GFP) | Compound | intracellular cAMP levels (GPR52 [1]) | intracellular calcium ion levels (GPR52 [2]) | phosphorylation (Ser897) of the NMDA-type glutamate receptor [3] | calcium level increase on addition after glutamate ([4]; 10 μM glutamate, then 10 μM Compound A during diminution of the calcium increase) | calcium level increase, compound alone without glutamate ([4]; 15 μM Compound A alone, glutamate not added) | EC50 (GPR52 [5]) [nM] | calcium level increase (ratio of Fura-2 fluorescence) on addition after glutamate ([4]; 10 μM glutamate, then 0.2 mM methoctramine during diminution of the calcium increase, n=11 neurons (FIG. 4)) | calcium level increase (ratio of Fura-2 fluorescence), compound alone without glutamate ([4]; 0.2 mM methoctramine alone, glutamate not added beforehand, n=27 neurons (FIG. 5)) |
| --- | --- | --- | --- | --- | --- | --- | --- | --- | --- |
| internalization occurred | COC(=O)[C@H]1[C@H]2C[C@@H]3c4[nH]c5cc(OC)ccc5c4CCN3C[C@H]2C[C@@H](OC(=O)c2cc(OC)c(OC)c(OC)c2)[C@@H]1OC [reserpine] | detected dose-dependently only in the human GPR52 expression CHO cell line | increased dose-dependently |  |  |  |  |  |  |
|  | Cc1ncc2c(n1)N(CCCN1CCNCC1)CCC2Nc1cccc(Oc2cccc(Cl)c2)c1.Cl.Cl.Cl.Cl (stereo not shown) [Compound A, N-[3-(3-chlorophenoxy)phenyl]-2-methyl-8-[3-(1-piperazinyl)propyl]-5,6,7,8-tetrahydropyrido[2,3-d]pyrimidine-5-amine tetrahydrochloride] |  |  | induced phosphorylation (Ser897) | reactivated to induce the calcium level increase | any increase in calcium levels was not observed | 2100 |  |  |
|  | COc1ccccc1CNCCCCCCNCCCCCCCCNCCCCCCNCc1ccccc1OC [methoctramine] |  | increased dose-dependently |  |  |  |  | reactivated to induce the calcium level increase | any increase in calcium levels was not observed |
